Experimental findings from PubChem BioAssay (NCI) are described below.

Several values for one entry are separate records, joined by “and”; a condition that tells them apart may be missing. Identical values can stand only once.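 Tested at 5 concentrations; 48 h exposure; 96-well plates; endpoints linearly interpolated, else capped at highest concentration. Abbreviation: GI50, concentration required for 50% inhibition of growth. TGI denotes the concentration required for complete inhibition of growth.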

Among the test systems are RPMI-8226 leukemia; OVCAR-5 ovarian; HCT-15 colon; DU-145 prostate; CAKI-1 renal; PC-3 prostate; SK-MEL-2 melanoma; ACHN renal; SNB-75 CNS; SK-MEL-28 melanoma.
What all share (experiment): DTP human tumour cell line panel, 48 h

On to `C=C(CN1CCN(c2cccc(C(F)(F)F)n2)CC1)c1ccc(C(=O)Nc2ccccc2N)cc1`, for which the GI50 – broadly, the concentration giving 50% growth inhibition – is 0.534 µM and 0.277 µM in the test on RPMI-8226 leukemia; 0.712 µM and 3.63 µM in the test on OVCAR-5 ovarian; 0.918 µM and 0.404 µM in the test on HCT-15 colon; 1.46 µM and 0.634 µM with DU-145 prostate; 0.512 µM and 0.52 µM in the test with CAKI-1 renal; 0.42 µM and 0.484 µM in the test on PC-3 prostate. The GI50 was 5.65 µM and 0.851 µM in the test with SK-MEL-2 melanoma; 0.673 µM and 0.21 µM in the test with SNB-75 CNS; 2.08 µM and 0.422 µM in the test on SK-MEL-28 melanoma. The TGI (usually the concentration giving total growth inhibition) in the test on RPMI-8226 leukemia was 4.19 µM and 1.33 µM; in the test with OVCAR-5 ovarian it was > 100 µM; in the test with HCT-15 colon, > 100 µM; in the test with DU-145 prostate, > 100 µM; with CAKI-1 renal it was > 100 µM and 25.7 µM; with PC-3 prostate, > 100 µM. In addition, the TGI in the test on SK-MEL-2 melanoma was 41.5 µM and > 58 µM; in the test on ACHN renal it was > 100 µM; in the test with SNB-75 CNS, 12.2 µM and 2.19 µM; with SK-MEL-28 melanoma it was > 100 µM and 15.5 µM.
With `Cc1ccc(Cc2cnc(NC(=O)/C=C/c3cccc(C)c3)s2)cc1`, the GI50 in the test with RPMI-8226 leukemia was 0.175 µM; in the test on OVCAR-5 ovarian, 0.492 µM; in the test with HCT-15 colon, 0.049 µM; in the test with DU-145 prostate it was 0.395 µM; in the test with CAKI-1 renal, 0.0663 µM; in the test on PC-3 prostate, 0.154 µM. For the same compound, the GI50 with SK-MEL-2 melanoma is 1.68 µM; in the test on ACHN renal it was 0.278 µM; with SNB-75 CNS, 0.104 µM; in the test with SK-MEL-28 melanoma, 1.35 µM. The TGI in the test on RPMI-8226 leukemia was 10.5 µM; with OVCAR-5 ovarian, > 70.8 µM; with HCT-15 colon, > 96 µM; in the test with DU-145 prostate, > 66.3 µM; in the test with CAKI-1 renal, 11 µM; with PC-3 prostate, > 100 µM. In addition, the concentration for total growth inhibition (TGI) was > 100 µM with SK-MEL-2 melanoma, 4.66 µM in the test on ACHN renal, 0.845 µM in the test with SNB-75 CNS and > 100 µM in the test on SK-MEL-28 melanoma.
Turning to `CNC(=S)NC(=O)c1c(Cl)n(C(=O)OC(C)(C)C)c2ccccc12`, the GI50 in the test with RPMI-8226 leukemia is 20.5 µM; in the test on OVCAR-5 ovarian, 73.8 µM; in the test with HCT-15 colon, 86 µM; in the test with DU-145 prostate, 94.2 µM; in the test with CAKI-1 renal, 21.2 µM; in the test on PC-3 prostate, 25.5 µM. For the same compound, the GI50 with SK-MEL-2 melanoma was > 100 µM; with ACHN renal it was 89.6 µM; with SNB-75 CNS, 96 µM; with SK-MEL-28 melanoma it was > 100 µM. The TGI with RPMI-8226 leukemia is 68.9 µM; in the test on OVCAR-5 ovarian it was > 100 µM; in the test on HCT-15 colon, > 100 µM; in the test on DU-145 prostate it was > 100 µM; with CAKI-1 renal, 69.9 µM; in the test with PC-3 prostate it was > 100 µM. Also, the TGI in the test on SK-MEL-2 melanoma, with ACHN renal, with SNB-75 CNS and in the test on SK-MEL-28 melanoma was > 100 µM throughout.
As to `Cc1nc2sc(C(=O)Nc3cccc4ccccc34)c(N)c2cc1C(O)c1ccccc1` (centres undefined), the GI50 with RPMI-8226 leukemia is 0.0595 µM; in the test with OVCAR-5 ovarian, 0.28 µM; in the test on HCT-15 colon, 0.0388 µM; with DU-145 prostate, 0.0804 µM; in the test on CAKI-1 renal, 0.0583 µM; in the test with PC-3 prostate, 0.118 µM. Besides, the GI50 with SK-MEL-2 melanoma is 0.29 µM; with ACHN renal, 0.0726 µM; in the test on SNB-75 CNS, 0.0241 µM; with SK-MEL-28 melanoma, 1.14 µM. Moreover, the TGI with RPMI-8226 leukemia is 5.74 µM; with OVCAR-5 ovarian, > 100 µM; in the test with HCT-15 colon it was 11.1 µM; in the test on DU-145 prostate, 6.67 µM; with CAKI-1 renal, 12 µM; with PC-3 prostate, > 38 µM. Further, the TGI in the test with SK-MEL-2 melanoma was 16.9 µM; in the test on ACHN renal it was 19.2 µM; with SNB-75 CNS, 11.7 µM; in the test on SK-MEL-28 melanoma, 24.2 µM.
Consider `CNC(=O)c1ccc(N2C(=S)N(c3ccc(C#N)c(C(F)(F)F)c3)C(=O)C2(C)C)cc1F`, for which the GI50 in the test on RPMI-8226 leukemia is 24.4 µM; in the test with OVCAR-5 ovarian, > 47.5 µM; with HCT-15 colon, 33.2 µM; in the test on DU-145 prostate, 53.9 µM; in the test with CAKI-1 renal, 31 µM; in the test on PC-3 prostate, 30.3 µM. Further, the GI50 with SK-MEL-2 melanoma is 36.2 µM; in the test with ACHN renal it was 22.4 µM; in the test with SNB-75 CNS, 42.2 µM; in the test on SK-MEL-28 melanoma it was > 51.8 µM. In addition, the concentration for total growth inhibition (TGI) in the test with RPMI-8226 leukemia was > 80 µM; in the test on OVCAR-5 ovarian, > 92.4 µM; in the test with HCT-15 colon it was > 89.3 µM; in the test on DU-145 prostate it was > 100 µM; with CAKI-1 renal, > 52 µM; with PC-3 prostate, > 100 µM. In addition, the concentration for total growth inhibition (TGI) in the test on SK-MEL-2 melanoma is > 71.9 µM; with ACHN renal, > 62.9 µM; in the test on SNB-75 CNS, > 79.9 µM; in the test on SK-MEL-28 melanoma, > 96.1 µM.
With `C=C1C(=O)OC2C1CCC(C)C1C=CC(=O)C12C` (centres undefined), the TGI in the test with RPMI-8226 leukemia is > 25.3 µM; with OVCAR-5 ovarian, 13.8 µM; in the test with HCT-15 colon it was 4.11 µM; in the test with DU-145 prostate, 7.36 µM; with CAKI-1 renal it was 6.75 µM; in the test with PC-3 prostate, 17.3 µM. The concentration for total growth inhibition (TGI) in the test on SK-MEL-2 melanoma came out at 17.5 µM; in the test with ACHN renal, 3.25 µM; in the test on SNB-75 CNS, 26.8 µM; in the test on SK-MEL-28 melanoma, 4.93 µM.
Turning to `Cc1ccc2c(-c3ccnc(Nc4ccccc4)n3)c(-c3ccc(F)cc3)nn2n1`, the GI50 in the test with RPMI-8226 leukemia was 10.5 µM; in the test on OVCAR-5 ovarian, 8.25 µM; with HCT-15 colon, 5.58 µM; in the test on DU-145 prostate, 7.59 µM; with CAKI-1 renal, 1.41 µM; in the test on PC-3 prostate, 9.97 µM. Also, the GI50 in the test on SK-MEL-2 melanoma was 7.67 µM; in the test with ACHN renal, 1.26 µM; in the test with SNB-75 CNS, > 8.35 µM; in the test on SK-MEL-28 melanoma, 12.2 µM. Besides, the TGI in the test on RPMI-8226 leukemia, with OVCAR-5 ovarian, in the test on HCT-15 colon, in the test with DU-145 prostate, with CAKI-1 renal and in the test with PC-3 prostate was > 25 µM each time. Further, the TGI with SK-MEL-2 melanoma is 17.4 µM; in the test with ACHN renal, > 25 µM; in the test with SNB-75 CNS, > 25 µM; in the test with SK-MEL-28 melanoma, > 25 µM.
With `O=C(O)CCCSc1ccccc1`, the TGI in the test on RPMI-8226 leukemia, in the test on OVCAR-5 ovarian, in the test with HCT-15 colon, with DU-145 prostate, in the test with CAKI-1 renal and in the test on PC-3 prostate was > 100 µM each time. In addition, the TGI with SK-MEL-2 melanoma, in the test with ACHN renal, with SNB-75 CNS and with SK-MEL-28 melanoma was > 100 µM in each case.
